Consider one molecule from publication PMC9218946, “Identification of a Subtype-Selective Allosteric Inhibitor of GluN1/GluN3 NMDA Receptors” (Frontiers in Pharmacology, 2022).

In experiment [1] the target is T1, native GluN1/GluN3 receptors (Rattus norvegicus, UniProt P35439+Q9R1M7).
T1 construct: endogenous in cells; host or cells: acutely isolated hippocampal neurons, Sprague-Dawley rats P7-14
Nature of the experiment: Whole-cell patch-clamp, glycine-induced currents after CGP-78608 in acutely isolated hippocampal neurons. The conditions noted are these: 10 μM WZB117; glycine-induced currents after incubation with CGP-78608. It counts as cell-based. How it is done:
(§1) Hippocampal neurons were obtained from Sprague-Dawley rats (aged P7-14). Briefly, the isolated hippocampal tissues were cut into approximately […] slices along the sagittal plane and were digested with 3 mg/ml proteinase (Sigma-Aldrich) at 32°C for 8 min. Then 1 mg/ml bovine serum albumin (Sangon Biotech) and 1 mg/ml trypsin inhibitor (Sigma-Aldrich) were used to stop the digestion. A few slices of the hippocampus were gently blown into single cells with the dissecting solution, then transferred to a dish and left to rest for 20 min before experiments. The dishes were preprocessed. Essentially, the bottom of the dish was covered with discarded cell suspension the day before the experiment and was washed and dried the next day, which prevented the neurons from sticking to the bottom too tightly. The dissecting solution contained (in mM): 82 Na2SO4, 30 K2SO4, 5 MgCl2, 1 Na pyruvate, 10 HEPES, and 20 glucose. The pH was adjusted to 7.2 using NaOH ([Xie et al., 2020]).
(§2) Whole-cell patch-clamp recordings were performed at room temperature (22–25°C) using an EPC-10 amplifier and Patch Master Software (HEKA). Pipettes were pulled from borosilicate glass capillaries (World Precision Instruments), and the resistances were 3–5 MΩ when filled with the intracellular solution. […]

In the next experiment the target is T2, GluN1/GluN2A (Homo sapiens, UniProt Q05586+Q12879).
T2 construct: expressed in transfected cells; host or cells: Xenopus oocytes
T2 sequence (Q12879 23-1464, other chains not shown): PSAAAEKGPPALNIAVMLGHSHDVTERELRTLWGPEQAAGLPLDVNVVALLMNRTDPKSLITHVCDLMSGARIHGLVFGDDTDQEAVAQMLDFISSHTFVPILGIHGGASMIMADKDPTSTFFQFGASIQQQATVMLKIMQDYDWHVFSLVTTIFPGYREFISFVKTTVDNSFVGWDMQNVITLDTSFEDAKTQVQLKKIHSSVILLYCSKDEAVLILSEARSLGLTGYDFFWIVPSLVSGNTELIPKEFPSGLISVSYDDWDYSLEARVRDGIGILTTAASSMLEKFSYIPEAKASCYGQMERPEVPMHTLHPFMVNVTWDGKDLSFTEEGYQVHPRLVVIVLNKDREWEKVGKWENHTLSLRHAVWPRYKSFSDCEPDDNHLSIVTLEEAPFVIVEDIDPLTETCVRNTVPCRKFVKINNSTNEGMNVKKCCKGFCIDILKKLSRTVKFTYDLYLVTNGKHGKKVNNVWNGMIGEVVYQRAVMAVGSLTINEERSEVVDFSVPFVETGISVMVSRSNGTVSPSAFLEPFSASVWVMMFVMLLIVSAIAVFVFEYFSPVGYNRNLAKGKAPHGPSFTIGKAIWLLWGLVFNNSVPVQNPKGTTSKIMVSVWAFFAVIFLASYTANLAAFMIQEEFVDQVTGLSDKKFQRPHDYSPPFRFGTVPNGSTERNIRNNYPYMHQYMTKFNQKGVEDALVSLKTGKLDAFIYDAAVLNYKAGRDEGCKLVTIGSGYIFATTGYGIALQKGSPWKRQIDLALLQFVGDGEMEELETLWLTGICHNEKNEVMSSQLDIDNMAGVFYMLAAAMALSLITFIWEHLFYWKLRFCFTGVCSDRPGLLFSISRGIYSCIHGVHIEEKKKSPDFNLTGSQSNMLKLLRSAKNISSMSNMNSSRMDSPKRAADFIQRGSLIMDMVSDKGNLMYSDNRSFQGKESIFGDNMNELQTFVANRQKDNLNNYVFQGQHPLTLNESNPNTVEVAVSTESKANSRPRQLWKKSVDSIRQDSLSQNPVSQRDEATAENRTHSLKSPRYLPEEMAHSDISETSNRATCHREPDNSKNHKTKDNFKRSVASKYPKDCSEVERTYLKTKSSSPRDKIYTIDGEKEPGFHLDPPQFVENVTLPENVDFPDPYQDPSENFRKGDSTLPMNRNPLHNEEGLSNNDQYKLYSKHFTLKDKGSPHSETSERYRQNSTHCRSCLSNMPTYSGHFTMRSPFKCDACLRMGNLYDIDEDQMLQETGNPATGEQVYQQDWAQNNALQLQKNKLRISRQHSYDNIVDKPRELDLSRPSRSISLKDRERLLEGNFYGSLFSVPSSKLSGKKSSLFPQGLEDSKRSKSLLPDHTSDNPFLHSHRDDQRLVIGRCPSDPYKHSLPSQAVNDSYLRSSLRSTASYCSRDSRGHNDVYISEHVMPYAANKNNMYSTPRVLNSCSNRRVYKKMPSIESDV
Nature of the experiment: GluN1/GluN2A currents (data analyzed from Figure 3D, TEVC in Xenopus oocytes). It counts as cell-based. Conditions: 30 μM WZB117. How it is done: (§3) Two-electrode voltage-clamp (TEVC) recordings were performed on Xenopus oocytes expressing various subtypes of recombinant NMDARs. Each oocyte was injected with a mixture of 0.5–1.0 ng cDNAs or cRNAs encoding wild-type (WT) or mutant GluN1 (GluN1-1a or GluN1-4a) and GluN2 (2A-2D) or GluN3 (3A-3B) at a ratio of 1:1. The mutant GluN1-4a ^F484A/T518L was injected together with GluN3B to boost the currents of GluN1/GluN3B receptors, and WT GluN1-1a was used unless otherwise stated. The cRNAs of GluN1-4a, GluN3A and GluN3B were transcribed from corresponding DNAs using the mMESSAGE mMACHINE T7 Ultra kit (Life Technologies) according to the manufacturer’s instructions, and the others not specified were cDNAs. TEVC recording was performed 24–72 h post injection in extracellular solution containing (in mM): 100 NaCl, 0.3 BaCl2, 2.5 KCl, 0.01 DTPA and 5 HEPES, and the pH was adjusted to 7.3 using NaOH. All recordings were carried out at a holding potential of −60 mV.
Supplementary Figure S3 Effects of WZB117 on currents from HEK-293 cells co-expressing GluN1/GluN2A/GluN3A subunits. GluN1/GluN2A/GluN3A receptors were expressed on HEK-293 cells at a ratio of GluN1-EGFP: GluN2A: GluN3A = 1:1:2. The GluN1/GluN2A/GluN3A receptors were stimulated by 100 μM glutamate and 100 μM glycine. The data of GluN1/GluN2A were analyzed from Figure 3D. […]

The subject of another experiment is KA receptors. Kind of experiment: Whole-cell patch-clamp, KA-induced currents in acutely isolated hippocampal neurons. It counts as cell-based, rat. The conditions noted are these: 10 μM WZB117. How it is done:
as §1, §2
Background: Patch clamp records ionic current or voltage across a cell membrane.

Experiment [2] concerns GluN1/GluN2 (2A-2D) receptors. Nature of the experiment: TEVC recording in Xenopus oocytes expressing GluN1/GluN2 (2A-2D). It counts as cell-based. Conditions: 30 μM WZB117; 100 μM glycine and 100 μM glutamate coapplied. How it is done:
as §3

Each structure is given as a SMILES string.

T1 sequence (Q9R1M7 24-1135, other chains not shown): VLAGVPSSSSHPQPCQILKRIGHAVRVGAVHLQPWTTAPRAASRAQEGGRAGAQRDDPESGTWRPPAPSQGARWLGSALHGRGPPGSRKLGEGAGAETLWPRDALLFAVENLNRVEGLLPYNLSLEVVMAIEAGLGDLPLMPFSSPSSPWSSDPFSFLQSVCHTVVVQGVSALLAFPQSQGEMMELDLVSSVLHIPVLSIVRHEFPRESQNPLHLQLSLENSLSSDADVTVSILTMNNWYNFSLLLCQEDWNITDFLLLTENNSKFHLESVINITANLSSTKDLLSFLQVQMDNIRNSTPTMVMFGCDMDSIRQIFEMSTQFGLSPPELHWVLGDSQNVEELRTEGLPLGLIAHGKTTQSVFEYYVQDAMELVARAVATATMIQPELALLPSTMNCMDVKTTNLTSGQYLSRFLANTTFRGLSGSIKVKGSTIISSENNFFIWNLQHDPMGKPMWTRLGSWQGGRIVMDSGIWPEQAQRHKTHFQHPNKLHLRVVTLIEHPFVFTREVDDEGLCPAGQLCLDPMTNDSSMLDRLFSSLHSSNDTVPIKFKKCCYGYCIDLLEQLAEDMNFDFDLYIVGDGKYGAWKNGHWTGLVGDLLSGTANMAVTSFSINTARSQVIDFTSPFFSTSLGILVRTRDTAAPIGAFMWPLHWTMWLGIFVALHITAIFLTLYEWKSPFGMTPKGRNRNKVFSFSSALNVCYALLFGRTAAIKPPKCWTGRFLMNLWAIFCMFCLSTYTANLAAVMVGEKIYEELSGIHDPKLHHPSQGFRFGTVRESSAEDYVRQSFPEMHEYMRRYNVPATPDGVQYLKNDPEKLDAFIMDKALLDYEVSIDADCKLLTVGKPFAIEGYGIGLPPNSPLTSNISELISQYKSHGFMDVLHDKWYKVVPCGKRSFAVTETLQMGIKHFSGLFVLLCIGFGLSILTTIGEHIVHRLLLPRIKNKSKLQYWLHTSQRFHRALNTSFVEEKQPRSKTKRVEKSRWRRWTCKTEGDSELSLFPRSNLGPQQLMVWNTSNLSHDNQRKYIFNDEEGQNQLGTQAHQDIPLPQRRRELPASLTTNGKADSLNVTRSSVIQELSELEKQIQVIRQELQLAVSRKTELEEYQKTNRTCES

As for `O=C(Oc1cccc(F)c1OC(=O)c1cccc(O)c1)c1cccc(O)c1` [WZB117, 3-fluoro-1,2-phenylene bis(3-hydroxybenzoate)], in experiment [1], the “I drug/I control” value came to 0.18 ± 0.03. Also, the “I drug/I cotrol” value at GluN1/GluN2A turned out to be 0.84 ± 0.01. Also, the “effect on KA-induced currents” value with KA receptors is “little effect”. Moreover, the inhibition of currents result in experiment [2] is “relatively weak inhibition”.
